Results taken from US8592403B2, “Diazepine and diazocane compounds as MC4 agonists” (Pfizer Limited, priority 2008, dated 2013).

Legend:
human MC3 receptors = molecular target: T1, human MC3 receptors (Homo sapiens, UniProt P41968); assay: In vitro agonist potency (EC50) at melanocortin receptor type 3, cAMP in recombinant cell line; format: cell-based
T1 construct: stably transfected with full length cDNA encoding human MC1 or MC3 receptors; expressed in transfected cells
Method: Measurement of In Vitro Agonist Potency (EC50) of Compounds Against Melanocortin Receptors Type 1 and 3 (MC1 and MC3).
Activation of melanocortin (MC) receptors by agonists results in activation of intracellular adenylate cyclase enzymes that synthesise the second messenger signalling molecule, adenosine 3′,5′-cyclic monophosphate (cAMP). Changes in cAMP levels following treatment of recombinant MC1 and MC3 cell lines with test compound were measured and an MC1 and MC3 potency estimate (EC50) calculated as follows: […]
Human embryonic kidney (HEK) or Chinese hamster ovary cell lines stably transfected with full length cDNA encoding human MC1 or MC3 receptors, respectively, were established using standard molecular biology methods. Test compounds were dissolved in dimethyl sulfoxide (DMSO) at 4 mM. 11 point half log unit increment dilution series of test compound, typically starting at 50 uM were prepared in a buffer comprised of phosphate buffered saline (PBS), 2.5% DMSO and 0.05% pluronic F-127 surfactant. Freshly cultured cells at 80-90% confluence were harvested and re-suspended in Dulbecco's Modified Eagle's Medium (DMEM). Cells (10,000 for MC3, 20,000 for MC1) were added to the test compound dilution series in a 384 well assay plate and incubated for 1 hour at 37° C. The relative cAMP concentration in each well was then measured using a β-galactosidase enzyme fragment complementation method purchased in kit form as the Discoverx cAMP II kit from GE Healthcare/Amersham Biosciences UK. In the case of MC1,3-Isobutyl-1-methylxanthine (IBMX) at a concentration of 750 μM was included in DMEM as the cells were re-suspended for assay. […] Sigmoidal curves were fitted to plots of log10 inhibitor concentration vs percent effect using a custom made software application called SIGHTS and EC50 estimates determined by the software as the concentration of test compound giving an effect half way between the bottom and top asymptotes of the sigmoidal dose response curve. Each experiment included an EC50 determination for alpha melanocyte stimulating hormone, which was used as a standard to track assay consistency and allow fair comparison between EC50 estimates obtained in different experiments.

MC4 receptor = MC4 receptor (Homo sapiens, UniProt P32245); assay: MC4 EC50 functional potency (protocol E of US2005/0176772 / WO 2005/077935); format: cell-based
Sequence of MC4 receptor (P32245 whole entry): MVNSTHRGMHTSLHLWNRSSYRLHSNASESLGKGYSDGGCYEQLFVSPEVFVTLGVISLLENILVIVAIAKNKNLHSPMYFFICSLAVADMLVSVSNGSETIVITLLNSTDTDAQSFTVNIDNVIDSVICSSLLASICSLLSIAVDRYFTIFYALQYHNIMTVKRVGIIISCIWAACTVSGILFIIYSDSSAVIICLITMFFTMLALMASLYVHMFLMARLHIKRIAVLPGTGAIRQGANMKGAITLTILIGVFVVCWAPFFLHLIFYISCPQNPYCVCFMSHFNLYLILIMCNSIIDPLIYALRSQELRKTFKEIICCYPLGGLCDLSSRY
Method: The compounds of formula (I) of the present invention have utility as MCR4 agonists in the treatment of various disease states.
MC5 and MC4 EC50 activity was determined as described by assay protocols D and E, respectively, in US2005/0176772 (pages 28-30).

CYP3A4 = molecular target: T2, CYP3A4 (Homo sapiens, UniProt P08684); assay: High density DDI 3 μM cocktail screen in human liver microsomes, midazolam probe; format: in vitro ADME; conditions: human, liver microsomes, probe midazolam, read-out: % inhibition 3A4 @ 3 μM
T2 construct: utilizes human liver microsomes together with isoform-specific clinical drug probes; from tissue; host or cells: human liver microsomes
T2 sequence (P08684 whole entry, canonical isoform): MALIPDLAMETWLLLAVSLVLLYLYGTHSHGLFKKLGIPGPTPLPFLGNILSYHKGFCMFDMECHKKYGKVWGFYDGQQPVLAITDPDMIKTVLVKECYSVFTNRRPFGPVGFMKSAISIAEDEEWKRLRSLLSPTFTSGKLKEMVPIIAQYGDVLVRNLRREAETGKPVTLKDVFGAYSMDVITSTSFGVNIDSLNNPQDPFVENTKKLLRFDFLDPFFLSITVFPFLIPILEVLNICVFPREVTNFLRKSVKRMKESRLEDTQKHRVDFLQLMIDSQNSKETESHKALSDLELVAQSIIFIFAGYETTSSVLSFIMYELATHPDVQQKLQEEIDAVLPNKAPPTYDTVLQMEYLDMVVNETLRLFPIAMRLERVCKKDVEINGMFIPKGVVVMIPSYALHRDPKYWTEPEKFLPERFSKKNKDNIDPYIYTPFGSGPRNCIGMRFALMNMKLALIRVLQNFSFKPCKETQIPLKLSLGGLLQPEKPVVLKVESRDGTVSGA
In short: (§1)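 Pooled human liver microsomes incubated with isoform-specific clinical probe substrates as a cocktail (midazolam for CYP3A4), with or without test compound at 3 μM. Metabolite formation followed over time by LC-MS/MS. Inhibition expressed as a single-point percentage.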

[1] = In vitro metabolism rate determination, human liver microsome (HLM) assay; format: in vitro ADME; conditions: for microsomal CLint at 1 μM: human, liver microsomes, read-out: HLM: Clint, app; for HLM: Clint, app: human liver microsomes, unit assumed
In short: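 Human liver microsomes at 0.5 nmol cytochrome P450/ml with 1 μM substrate, pre-warmed 5 min at 37° C, reaction started with NADP; samples taken 0–60 min and terminated. Substrate loss measured; first-order rate constant from log-linear regression converted to half-life or Clint (μl/min/mg protein).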

MC4 receptor (MC4R) = molecular target: T3, MC4 receptor (MC4R) (Homo sapiens, UniProt P32245); assay: Nle4, D-Phe7-α-MSH inhibition at the MC4 receptor (competition binding, SPA, CHO-CRE MC4R membranes)
T3 construct: expressed in transfected cells; host or cells: CHO-CRE MC4R cells (membranes)
T3 sequence (P32245 whole entry): as the sequence (P32245 whole entry) above
Text: Nle4, D-Phe7-α-MSH Inhibition at the MC4 Receptor
Nle4, D-Phe7-α-MSH is a stable analogue of melanocyte-stimulating hormone (MSH), which is an agonist at the MC4 receptor (MC4R). Compounds can be evaluated for their ability to inhibit Nle4, D-Phe7-α-MSH binding to membranes from cells expressing the MC4R using a competition binding assay versus [^125I] Nle4, D-Phe7-α-MSH.
Cells expressing the MC4R were subject to homogenisation and the membrane fragment isolated by differential centrifugation. CHO-CRE MC4R cell membranes were coupled to PVT-PEI-WGA SPA Beads type A for 2 hours, spun at 1000 RPM for 5 min and suspended to a concentration of 300 ug bead/ml (0.15 ug membrane, 15 ug bead per well). Bead/membrane mix was incubated with 0.06 nM [^125I] Nle4, D-Phe7-α-MSH and 11 half-log concentrations of competitor ligand, in duplicate, in a total volume of 50 μl buffer per well (25 mM HEPES, 1 mM MgCl2, 2.5 mM CaCl2, 1% Pluronic F68, 1 complete EDTA protease inhibitor tablet/50 ml pH7). Non-specific binding was determined by the inclusion of 100 nM SHU9119. The reaction was initiated by the addition of bead/membranes and plates were incubated at room temperature for 12 hours (the first hour on a plate shaker), after which the amount of radioactivity present was determined using a Wallac plate counter. Ki values were determined by data analysis using appropriate software.

cytochrome P450 3A4 = molecular target: T4, cytochrome P450 3A4 (Homo sapiens, UniProt P08684); assay: High density DDI 3 μM cocktail screen in human liver microsomes, midazolam probe; format: in vitro ADME; conditions: 3 µM
T4 construct: utilizes human liver microsomes together with isoform-specific clinical drug probes; from tissue; host or cells: human liver microsomes
T4 sequence (P08684 whole entry, canonical isoform): as the sequence (P08684 whole entry, canonical isoform) above
In short: as §1

MC3 receptor (MC3R) = molecular target: T5, MC3 receptor (MC3R) (Homo sapiens, UniProt P41968); assay: Nle4, D-Phe7-α-MSH inhibition at the MC3 receptor (competition binding, SPA, CHO-CRE MC3R membranes)
T5 construct: expressed in transfected cells; host or cells: CHO-CRE MC3R cells (membranes)
T5 sequence (P41968 whole entry): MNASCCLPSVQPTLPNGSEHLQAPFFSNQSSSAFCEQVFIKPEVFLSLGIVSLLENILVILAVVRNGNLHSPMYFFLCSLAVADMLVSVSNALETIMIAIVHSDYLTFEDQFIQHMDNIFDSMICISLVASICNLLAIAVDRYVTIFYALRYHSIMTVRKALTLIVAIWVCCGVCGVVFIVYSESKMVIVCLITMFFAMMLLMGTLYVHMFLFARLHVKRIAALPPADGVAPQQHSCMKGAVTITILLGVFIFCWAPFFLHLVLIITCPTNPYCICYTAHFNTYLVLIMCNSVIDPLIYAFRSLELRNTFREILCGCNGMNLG
In short: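 Competition binding by SPA used CHO-CRE MC3R membranes on WGA beads with 0.06 nM [125I]Nle4,D-Phe7-α-MSH and 11 half-log competitor concentrations. Buffer was 25 mM HEPES, MgCl2, CaCl2, 1% Pluronic F68, pH7, incubated 12 h at room temperature. Non-specific binding was defined with 100 nM SHU9119, and Ki values were derived.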

T1 sequence (P41968 whole entry): as above

| EC50 (human MC3 receptors) | EC50 (MC4 receptor) | inhibition at 3 µM (CYP3A4) | microsomal CLint at 1 μM [1] | Ki (MC4 receptor (MC4R)) | % inhibition 3A4 @ 3 μM (cytochrome P450 3A4) | HLM: Clint, app [1] | Ki (MC3 receptor (MC3R)) | SMILES |
| --- | --- | --- | --- | --- | --- | --- | --- | --- |
| 6670 nM | 25.1 nM | 88% | 41 µL/min/mg | – | – | – | – | CS(=O)(=O)N1CCN(C(=O)[C@@H]2CN(c3cccnn3)C[C@H]2c2ccc(F)cc2F)CCCC1c1ccc(Cl)cc1 (mixture of isomers) [Example 41] |
| – | 18.5 nM | 55.5% | 92.6 µL/min/mg | 378 nM | – | – | 2100 nM | CC(C)CC(=O)N1CCN(C(=O)[C@@H]2CN(C(C)(C)C)C[C@H]2c2ccc(F)cc2F)CCC[C@H]1c1ccc(Cl)cc1 [Example 16] |
| – | 43.3 nM | 66.9% | 118 µL/min/mg | 513 nM | – | – | 2780 nM | CC(C)(C)N1C[C@@H](C(=O)N2CCC[C@@H](c3ccc(Cl)cc3)N(C(=O)C3CCCC3)CC2)[C@H](c2ccc(F)cc2F)C1 [Example 17] |
| 506 nM | 2.23 nM | 60.8% | 21.4 µL/min/mg | – | – | – | – | COc1ccc([C@@H]2CN(c3ccc(=O)n(C)n3)C[C@H]2C(=O)N2CCC[C@@H](c3ccc(Cl)cc3)N(C(=O)C3CC3)CC2)c(F)c1 [Example 29] |
| – | 55.4 nM | 49.5% | 43.4 µL/min/mg | 1050 nM | – | – | 10300 nM | COC(=O)N1CCN(C(=O)[C@@H]2CN(C(C)(C)C)C[C@H]2c2ccc(OC)cc2F)CCC[C@H]1c1ccc(Cl)cc1 [Example 71] |

Second part, the compound before the results:

| SMILES | EC50 (human MC3 receptors) | EC50 (MC4 receptor) | inhibition at 3 µM (CYP3A4) | microsomal CLint at 1 μM [1] | Ki (MC4 receptor (MC4R)) | % inhibition 3A4 @ 3 μM (cytochrome P450 3A4) | HLM: Clint, app [1] | Ki (MC3 receptor (MC3R)) |
| --- | --- | --- | --- | --- | --- | --- | --- | --- |
| COC(=O)N1CCN(C(=O)[C@@H]2CN(c3cccnn3)C[C@H]2c2ccc(F)cc2F)CCCC1c1ccccc1 (mixture of isomers) [Example 100] | 436 nM | 7.16 nM | 65.5% | 83 µL/min/mg | 189 nM | – | – | – |
| CS(=O)(=O)N1CCN(C(=O)[C@@H]2CN(c3ccc(C#N)cn3)C[C@H]2c2ccc(F)cc2F)CCCC1c1ccccc1 (single isomer, unassigned) [Example 39] | 942 nM | 38 nM | 87.5% | 177 µL/min/mg | – | – | – | – |
| CS(=O)(=O)N1CCN(C(=O)[C@@H]2CN(c3ccc(C#N)cn3)C[C@H]2c2ccc(F)cc2F)CCCC1c1ccccc1 (single isomer, unassigned) [Example 40] | 607 nM | 29 nM | – | – | – | 79.5% | 156 µL/min/mg | – |
| COc1ccc([C@@H]2CN(c3ccc(=O)[nH]n3)C[C@H]2C(=O)N2CCCC(c3ccc(Cl)cc3)N(S(C)(=O)=O)CC2)c(F)c1 (single isomer, unassigned) [Example 114] | – | 73.4 nM | – | – | 20.8 nM | 27.5% | 16.4 µL/min/mg | 1150 nM |
| COc1ccc([C@@H]2CN(c3ccc(=O)n(C)n3)C[C@H]2C(=O)N2CCC[C@@H](c3ccc(Cl)cc3)N(C(=O)C(C)C)CC2)c(F)c1 [Example 31] | 412 nM | 1.23 nM | 40.8% | 21.8 µL/min/mg | 28.2 nM | – | – | – |
| CN(C)C(=O)N1CCN(C(=O)[C@@H]2CN(c3ccc(C#N)nn3)C[C@H]2c2ccc(Cl)cn2)CCC[C@H]1c1ccc(Cl)cc1 [Example 45] | – | 10.8 nM | 75.8% | 234 µL/min/mg | 121 nM | – | – | 101 nM |
| COC(=O)N1CCN(C(=O)[C@@H]2CN(c3ccc(=O)[nH]n3)C[C@H]2c2ccc(OC)cc2F)CCC[C@H]1c1ccc(Cl)cc1 [Example 69, methyl 8S-(4-chlorophenyl)-4-{[(3S,4R)-4-(2-fluoro-4-methoxyphenyl)-1-(6-oxo-1,6-dihydropyridazin-3-yl)pyrrolidin-3-yl]carbonyl}-1,4-diazocane-1-carboxylate] | – | 7.6 nM | 53% | 8 µL/min/mg | 16.4 nM | – | – | 990 nM |
| COC(=O)N1CCN(C(=O)[C@@H]2CN(c3ccc(C#N)nn3)C[C@H]2c2ccc(OC)cc2F)CCC[C@@H]1c1ccc(Cl)cc1 [Example 88] | 148 nM | 5.38 nM | – | – | 24 nM | – | – | 153 nM |
| COC(=O)N1CCN(C(=O)[C@@H]2CN(c3ccc(C#N)nn3)CC2c2ccc(OC)cc2F)CCC[C@H]1c1ccc(Cl)cc1 (stereo partly shown) [Example 89] | 764 nM | 14.3 nM | – | – | 31.3 nM | – | – | 402 nM |
| COC(=O)N1CCN(C(=O)[C@@H]2CN(c3ccc(C#N)nn3)C[C@H]2c2ccc(Cl)cn2)CCC[C@H]1c1ccc(Cl)cc1 [Example 98, methyl 8S-(4-chlorophenyl)-4-{[(3S,4S)-4-(5-chloropyridin-2-yl)-1-(6-cyanopyridazin-3-yl)pyrrolidin-3-yl]carbonyl}-1,4-diazocane-1-carboxylate] | – | 5.26 nM | 46.9% | 13.9 µL/min/mg | 52 nM | – | – | 201 nM |
| CS(=O)(=O)N1CCN(C(=O)[C@@H]2CN(c3ccc(C#N)nn3)C[C@H]2c2ccc(Cl)cn2)CCC[C@H]1c1ccc(Cl)cc1 [Example 102] | – | 12 nM | 65% | 16 µL/min/mg | 174 nM | – | – | 545 nM |
| COc1ccc([C@@H]2CN(c3ccc(Cl)nn3)C[C@H]2C(=O)N2CCCC(c3ccc(Cl)cc3)N(S(C)(=O)=O)CC2)c(F)c1 (stereo partly drawn) [Example 108, [5-(4-chlorophenyl)-4-(methylsulfonyl)-1,4-diazocan-1-yl]-[(3S,4R)-1-(6-chloro-pyridazine-3-yl)-4-(2-fluoro-4-methoxyphenyl)-pyrrolidin-3-yl]-methanone] | – | 123 nM | 63.5% | 59 µL/min/mg | 180 nM | – | – | 875 nM |
